Values of other authors in patent publication US20120141434A1, “Methods for Selecting Expanded Stem Cell Populations” (Gamida Cell Ltd., priority 2009, published 2012).

Experiments:
[1] = test system: cord blood-derived progenitor cells; settings: three-week treatment of cord blood cultures supplemented with early acting cytokines
NOD/SCID mice = settings: TEPA treated cultures compared to untreated cultures

For `NCCNCCNCCNCCN` [TEPA, tetraethylenepentamine], the “ex vivo expansion of CD34+ cells” value [1] is given as “prolonged and extensive”, the “percentages of early progenitors (CD34+CD38−, CD34+CD38−Lin-)” value [1] is given as “higher” and the “engraftment potential in NOD/SCID mice” value (NOD/SCID mice) is given as “increased”.
